The values that follow come from patent US10472341B2, “Bicyclic tetrahydrothiazepine derivatives useful for the treatment of neoplastic and/or infectious diseases” (APEIRON BIOLOGICS AG, priority 2015, dated 2019).

Molecules are shown by their SMILES. pEC50: −log10 of the molar value. Counter-ions that a name gives are not always drawn. Like-named read-outs stand apart in the source and are kept apart here.

Test [1] has as its system aCD3/aCD28-stimulated human PBMCs. In words: Cytokine production in aCD3/aCD28 stimulated human PBMCs. In kind it is cell-based. As to conditions: PBMC, 18 h. In a few lines:
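Ficoll-isolated human PBMCs at 1e6 cells/mL in X-Vivo15, stimulated with soluble anti-CD3/CD28 (OKT3 and 28.2, 1 μg/mL each) plus compound for 18 h at 37° C. Supernatant cytokines quantified by MSD or HTRF.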

Test [2] concerns aCD3/aCD28-stimulated human CD4+-T-cells. In words: IL-2 production and activation markers in aCD3/aCD28 stimulated isolated human CD4+-T-cells. In kind it is cell-based. As to conditions: IL-2 production at 3 μM compound. The procedure, abridged: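 CD4+ T cells isolated from buffy-coat PBMCs by microbeads were plated in Xvivo medium (1.5*10^5 cells/well) and stimulated with anti-CD3/28 mAbs plus compound. IL-2 measured by ELISA in supernatants at 24 h or 48 h; CD25 and proliferation by flow cytometry, CD69 at 24 h. Activity classes based on IL-2 at 3 μM compound.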

For a further test, the system named is non-stimulated PBMCs. In words: Non-stimulated PBMCs: cytokine secretion and signs of T-cell activation. In kind it is cell-based, human. An excerpt:
This is an important finding for compounds that shall selectively act on T cells which have been activated by presence of antigen from pathogens or tumors, but shall not lead to an unwanted general activation of all T cells of a patient.

Setting [3] is: enhancement of IFN-γ production, read-out: Activity Class IFN-γ.
The mark [4] stands for this setting: enhancement of IL-2 production, read-out: Activity Class IL-2.

Turning to `Cl.N[C@H]1CS(=O)(=O)c2cc(F)c(C(=O)NCCCC(F)(F)F)cc2N(Cc2ccc(Cl)cc2)C1=O` [Example 70, (3R)-3-amino-5-[(4-chlorophenyl)methyl]-8-fluoro-1,1,4-trioxo-N-(4,4,4-trifluoro-butyl)-2,3,4,5-tetrahydro-1λ^6,5-benzothiazepine-7-carboxamide hydrochloride], the pEC50 in test [1] (setting [3]) and in test [1] (setting [4]) was over 5.80 in each case. Besides, in test [2], the “Activity Class CD4+” value is “A (IL-2 production at 3 μM compound concentration >10 ng/mL)”.

In the case of `CC(C)NC(=O)c1cc2c(cc1F)S(=O)(=O)C[C@H](N)C(=O)N2Cc1ccc(Cl)cc1.Cl` [Example 77, (3R)-3-amino-5-[(4-chlorophenyl)methyl]-8-fluoro-1,1,4-trioxo-N-(propan-2-yl)-2,3,4,5-tetrahydro-1λ^6,5-benzothiazepine-7-carboxamide hydrochloride], the pEC50 in test [1] (setting [3]) and in test [1] (setting [4]) was 5.30 to 5.80 throughout. In addition, the “cytokine secretion or other signs of T-cell activation” value (“cytokine secretion or other signs” below) in the test on non-stimulated PBMCs is given as “did not enhance cytokine secretion or other signs of T-cell activation”. For the same compound, the “Activity Class CD4+” value in test [2] is “C (IL-2 production at 3 μM compound concentration between 2-fold increase as compared to mean IL-2 production of stimulated cells in the absence of compounds and <2 ng/mL)”.

With `CCCCNC(=O)c1ccc2c(c1)N(Cc1ccc(OC(F)(F)F)cc1)C(=O)[C@@H](N)CS2(=O)=O.Cl` [Example 67, (3R)-3-amino-N-butyl-1,1,4-trioxo-5-{[4-(trifluoromethoxy)phenyl]methyl}-2,3,4,5-tetrahydro-1λ^6,5-benzothiazepine-7-carboxamide hydrochloride], the pEC50 in test [1] (setting [3]) and in test [1] (setting [4]) was over 5.80 each time. Besides, the “cytokine secretion or other signs” value in the test on non-stimulated PBMCs is “did not enhance cytokine secretion or other signs of T-cell activation”. Also, the “Activity Class CD4+” value in test [2] was “A (IL-2 production at 3 μM compound concentration >10 ng/mL)”.

For the compound `N[C@H]1CS(=O)(=O)c2cc(F)c(C(=O)NC3CC3(F)F)cc2N(Cc2ccc(Cl)cc2)C1=O` (stereo partly drawn) [Example 1, (3R)-3-amino-5-[(4-chlorophenyl)methyl]-N-(2,2-difluorocyclopropyl)-8-fluoro-1,1,4-trioxo-2,3,4,5-tetrahydro-1λ^6,5-benzothiazepine-7-carboxamide hydrochloride], the pEC50 in test [1] (setting [3]) and in test [1] (setting [4]) was over 5.80 in each case. The “cytokine secretion or other signs” value in the test with non-stimulated PBMCs is listed as “did not enhance cytokine secretion or other signs of T-cell activation”. Moreover, the “Activity Class CD4+” value in test [2] is given as “A (IL-2 production at 3 μM compound concentration >10 ng/mL)”.
